This is an account of results in patent publication US9908899B2 (BIOMARIN PHARMACEUTICAL INC., priority 2011, dated 2018).

The target in one data set is HDAC3/NcoR2 (Homo sapiens (Human), UniProt O15379). Put plainly: HDAC activity inhibition assay, HDAC3/NcoR2. The format is biochemical. On the procedure: (§1) The HDAC activity inhibition assay was performed as follows to determine the ability of a test compound to inhibit HDAC enzymatic activity. […] Following pre-incubation, Fluor-de-Lys™ substrate (Enzo Life Sciences, Plymouth Meeting, Pa., BML-KI104-0050) was added to a final concentration of 10 μM and plates were further incubated for 30 minutes at room temperature. […] IC50 values were calculated by using a sigmoidal dose-response (variable slope) equation in GraphPad Prism® 5 for Windows (GraphPad Software, La Jolla, Calif.).
Chain of HDAC3/NcoR2 (O15379 whole entry): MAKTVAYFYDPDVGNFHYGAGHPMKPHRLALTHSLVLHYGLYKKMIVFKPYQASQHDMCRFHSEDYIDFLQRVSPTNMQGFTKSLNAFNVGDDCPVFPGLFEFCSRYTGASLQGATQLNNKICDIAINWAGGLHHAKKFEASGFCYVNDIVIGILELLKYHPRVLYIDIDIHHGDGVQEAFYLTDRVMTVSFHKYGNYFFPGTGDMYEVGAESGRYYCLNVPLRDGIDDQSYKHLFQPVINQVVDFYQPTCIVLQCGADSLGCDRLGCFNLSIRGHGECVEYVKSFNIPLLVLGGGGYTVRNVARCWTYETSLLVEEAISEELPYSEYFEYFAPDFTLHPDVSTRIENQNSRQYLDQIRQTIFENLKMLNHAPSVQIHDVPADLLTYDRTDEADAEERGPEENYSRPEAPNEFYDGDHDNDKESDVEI
Chain of HDAC3/NcoR2 (Q9Y618 395-489 partner): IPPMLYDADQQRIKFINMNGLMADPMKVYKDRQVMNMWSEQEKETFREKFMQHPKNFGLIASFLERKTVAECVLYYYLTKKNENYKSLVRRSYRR

In data set [1] the test system is GM 15850(lymphoblastoid cells line) cells. Put plainly: In-cell deacetylase inhibition assay (DAC assay). Format: cell-based. The note with it: GM 15850 cells, 4 h incubation, read-out: 850 DAC (in-cell deacetylase inhibition IC50). As for the experimental part:
Compound dilutions were made in 100% DMSO followed by parallel dilution in media with 2% DMSO. 10 μl of the compound dilutions were added to the cells to achieve the desired concentrations. The final concentration of DMSO in each well was 0.2%. The cells were incubated for 4 h at 37° C. with 5% CO2. After incubation, the cells were centrifuged down and the supernatant was removed. […] The reaction was stopped after 30 min incubation by addition of 50 μL developer (6 mg/mL trypsin in HDAC assay buffer). The reaction was allowed to develop for 30 min at room temperature and the fluorescence signal was detected using a fluorometer (Spectramax M2, Molecular Devices, Sunnyvale, Calif.) with excitation and emission wavelengths of 360 nm and 470 nm respectively. The data was fitted to a sigmoidal dose response equation with variable slope in GraphPad Prism 5.0 (GraphPad Software, La Jolla, Calif.) to determine IC50. Bottom and top of the curve were fixed to the average fluorescence response of control wells with no cells and cells but no compound respectively.

In a further data set the target is HDAC2 (Homo sapiens (Human), UniProt Q92769). Put plainly: HDAC activity inhibition assay, HDAC2. The format is biochemical. On the procedure: as §1
Chain of HDAC2 (Q92769 whole entry): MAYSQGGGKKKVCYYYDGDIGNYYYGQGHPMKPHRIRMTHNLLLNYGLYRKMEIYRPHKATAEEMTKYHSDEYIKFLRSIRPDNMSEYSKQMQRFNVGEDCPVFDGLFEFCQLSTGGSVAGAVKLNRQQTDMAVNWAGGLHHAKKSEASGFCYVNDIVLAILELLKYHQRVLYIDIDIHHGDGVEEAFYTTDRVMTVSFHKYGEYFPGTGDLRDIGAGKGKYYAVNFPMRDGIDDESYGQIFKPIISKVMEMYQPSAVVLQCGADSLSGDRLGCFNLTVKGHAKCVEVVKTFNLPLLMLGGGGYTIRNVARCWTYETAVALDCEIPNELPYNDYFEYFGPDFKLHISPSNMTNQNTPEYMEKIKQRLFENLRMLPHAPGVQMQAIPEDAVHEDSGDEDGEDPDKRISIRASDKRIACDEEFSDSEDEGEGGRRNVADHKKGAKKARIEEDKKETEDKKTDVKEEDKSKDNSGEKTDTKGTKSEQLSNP
The next data set concerns the target HDAC1 (Homo sapiens (Human), UniProt Q13547). Put plainly: HDAC activity inhibition assay, HDAC1. The format is biochemical. On the procedure:
as §1

The next data set has as its system Frataxin (FXN) mRNA. Put plainly: Effect of HDAC inhibitors on frataxin (FXN) mRNA expression in Friedreich's ataxia patient primary lymphocytes. Format: cell-based, human. As to conditions: Table 4; concentration for 2-fold increase in FXN mRNA. As for the experimental part: Blood is collected from Friedreich's ataxia patient donors into tubes containing the anti-coagulant EDTA. Primary lymphocytes are isolated using Lymphocyte Separation Medium (MP Biomedicals, Solon, Ohio) following the manufacturer's instructions and including a few modifications made by Repligen. After a final wash in Phosphate Buffered Saline (PBS), the cells are distributed into a 6-well cell culture plate in cell growth medium. The test HDAC inhibitor compound is added to cells in a dose escalating manner (usually concentrations range from 1 to 10 μM) and 0.1% DMSO is added to one well of cells as a no treatment control. Cells are incubated for 48 hours at 37° C. in a CO2 incubator; cell counts are taken using a Countess automated cell counter (Invitrogen, Carlsbad, Calif.). Equivalent numbers of cells for all treatment conditions are pelleted by centrifugation and resuspended in cell lysis buffer. Total RNA is isolated from approximately 1×10^6 primary lymphocytes using a RNeasy Mini Kit (Qiagen, Valencia, Calif.), following the manufacturer's instructions and including an optional on-column DNAse digestion step. The isolation is performed either manually or using the QIAcube (Qiagen, Valencia, Calif.), an instrument that automates much of the isolation procedure. The RNA yield and concentration is determined using a Nanodrop spectrophotometer (Thermo Fisher Scientific, Waltham, Mass.) and depending on the RNA concentration, one of two protocols is used to measure frataxin (FXN) transcript levels. For samples containing at least 15 ng/μL RNA a TaqMan® Probe-based (Applied Biosystems, Carlsbad, Calif.) qRT-PCR method is used, while for samples containing less than 15 ng/μL RNA a SYBR Green qRT-PCR method is used. In the TaqMan® Probe-based method specific primer/probe pairs for FXN and GAPDH are multiplexed in each reaction. In the SYBR Green method FXN and GAPDH are amplified in separate reactions. In both methods each RNA sample is analyzed in triplicate (preferably) or duplicate (minimally) using a one-step qRT-PCR master mix that contains all the components necessary for cDNA synthesis and PCR amplification in a single, continuous reaction. After cycling is complete, MxPro Software (Agilent Technologies, Santa Clara, Calif.) is used to analyze the collected data and determine the relative amount of FXN mRNA compared to a control sample. An adaptive baseline method is used for baseline correction whereby an algorithm automatically selects the appropriate baseline cycles for each well and each dye. An amplification-based threshold is set and the corresponding threshold cycle, or Ct, is obtained for calculating target concentration. The Ct values for each target gene (FXN and GAPDH) for each replicate series are averaged. The amount of FXN (or GAPDH) in the sample is determined as the relative quantity to the calibrator where the calibrator sample is assigned an arbitrary quantity of 1. The following equation is used: Relative quantity to the calibrator=2^−ΔCt where ΔCt=(Ct_gene)unknown−(Ct_gene)calibrator, gene is either FXN or GAPDH, calibrator is a DMSO control sample, and unknown is a HDACi treated sample. The relative quantity of FXN is normalized to cell number and RNA input. Data is reported in Tables 2 and 4 below, where the concentration required for a 2-fold increase in FXN mRNA is reported as A if less than 5 μM, B if between 5 and 10 μM, C if greater than 10 μM.

A short description of data set [2]: Brain penetration studies. The note with it: Table 4; mice; Cmax(brain)/Cmax(plasma).
Method: Test compounds were prepared at either 0.5 mg/ml or 5 mg/ml in 30% hydroxypropyl-β-cyclodextrin, 100 mM sodium acetate pH 5.5, 5% DMSO. C57/BL6/J mice were dosed s.c. at 5 mg/kg or 50 mg/kg, or i.v. at 5 mg/kg. Animals were euthanized at pre-dose, 5, 15, 30 min, 1, 2 and 4 hours post-dose and plasma and brain obtained. Three animals per dose per time points were used. The levels of compound in the plasma and brain were determined by standard LC/MS/MS methods. Brain/plasma ratio (BPR) was calculated as the ratio of the Cmax(brain)/Cmax(plasma).
The test system of a further data set is Human Hepatocytes. Put plainly: Compound stability in hepatocytes. As to conditions: 5 μM.
In another data set the test system is C57BL/6J male mice. Put plainly: Long term memory for object recognition (ORM). Format: in vivo. As to conditions: s.c. 3, 10, 30 mg/kg. As for the experimental part: C57BL/6J male mice were handled 1-2 min for 5 days and were habituated to the experimental apparatus 5 min a day for 4 consecutive days in the absence of objects. […] 24-h later mice were tested for memory retention (5 min) using the object recognition memory task (ORM), in which a familiar object was replaced with a novel one. All training and testing trials were videotaped and analyzed by individuals blind to the treatment condition and the genotype of subjects. A mouse was scored as exploring an object when its head was oriented toward the object within a distance of 1 cm or when the nose was touching the object. The relative exploration time was recorded and expressed by a discrimination index [DI=(tnovel−tfamiliar)/(tnovel+tfamiliar)×100].

Where [3] appears, read: Table 1, 2 hours pre-incubation.

The structures appear in SMILES notation. pIC50: −log10 of the molar value. Like-named read-outs stand apart in the source and are kept apart here.

Chain of HDAC1 (Q13547 whole entry): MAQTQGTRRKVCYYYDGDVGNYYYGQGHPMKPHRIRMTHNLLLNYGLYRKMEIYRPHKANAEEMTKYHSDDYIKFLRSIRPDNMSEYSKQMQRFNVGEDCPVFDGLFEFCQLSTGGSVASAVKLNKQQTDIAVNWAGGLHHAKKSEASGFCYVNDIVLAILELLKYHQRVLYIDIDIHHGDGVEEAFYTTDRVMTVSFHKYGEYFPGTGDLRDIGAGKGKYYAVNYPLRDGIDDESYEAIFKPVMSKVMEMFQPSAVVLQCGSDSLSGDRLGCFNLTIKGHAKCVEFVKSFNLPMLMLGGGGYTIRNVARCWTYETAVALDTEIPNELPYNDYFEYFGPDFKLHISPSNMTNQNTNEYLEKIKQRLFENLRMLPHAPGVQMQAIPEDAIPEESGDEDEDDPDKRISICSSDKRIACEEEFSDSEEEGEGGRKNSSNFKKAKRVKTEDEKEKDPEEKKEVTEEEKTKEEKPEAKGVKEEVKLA
Method for Human Hepatocytes: To assess the stability and metabolism of RGFP compounds in hepatocytes. This assay was designed to evaluate the metabolism of RGFP compounds, following their incubation with human, monkey, dog and rat hepatocytes by monitoring either parent drug disappearance or metabolite appearance using HPLC.
Procedure: • Turn on the water-bath heater to 37° C. • Take out the KHB buffer and make sure it is at room temp before use • Prepare 2.5 mM concentration of RGFP compound in DMSO stock • Add 10 μL of above DMSO stock to 2490 μL KHB buffer; final concentration of RGFP compound will be 10 μM • Pre-warm 45 ml InVitro HT Medium to 37° C. in a sterile 50 ml conical tube • Add 1.0 mL Torpedo Antibiotic Mix per 45 mL InVitro HT medium • Transfer 13 mL of warm HT medium with Antibiotic Mix into a 15 mL conical tube. • Carefully remove the hepatocyte vials from liquid nitrogen (liquid phase). • Immediately immerse the vial into a 37° C. water bath. Shake gently until the ice melts entirely. […] Loosen the cell pellet by gently swirling the centrifuge tube • Transfer 100 μL of above solution to a different tube and add 900 μL of KHB buffer to count the cells • Determine the total cell count and the number of viable cells using the Trypan Blue exclusion method • Once you obtain the cell count, multiply the number by 10 (attributing to the dilution factor) • Now add required volume of KHB buffer to the tube containing hepatocytes such that the final count will be 2 million cells/mL • Dispense 50 μL of 2 million cells/ml to a 96 well plate and then add 50 μl of DMSO stock to respective wells (such that, the concentration of RGFP compounds is 5 μM and number of cells are 100000 in each well) • Place the plates on a shaker in a 37° C. incubator with 5% CO2 • Separate plates for each time point are advisable (Time points: 0 h, 1 h, 2 h, and 6 h) • After each time point, add 100 μL of quenching solution. • Quenching solution is an acetonitrile solution containing RGFP531 (10 μM) internal standard, 0.1% formic acid and phenylglyoxol (400 μM). The formic acid and phenylglyoxal is used for the identification and quantification of OPD as mentioned above. • Pipette up and down a few times to ensure a complete stop of reaction • Transfer all the solution into a 1.5 ml tube, vortex thoroughly, and centrifuge at 14000 RPM at 4° C. for 5 minutes to precipitate cell debris
Transfer the 150 μL of supernatant to vials for analysis using HPLC

For the compound `Cc1nn(C/C=C/c2ccccc2)c(C)c1/C=C/C(=O)Nc1ccccc1N` [G2, (E)-N-(2-aminophenyl)-3-(1-cinnamyl-3,5-dimethyl-1H-pyrazol-4-yl)acrylamide], the pIC50 was above 6.00 on HDAC3/NcoR2 (setting [3]); 4.70 to 5.00 in data set [1] (Homo sapiens, GM15850); 5.30 to 6.00 against HDAC2 (setting [3]); 5.30 to 6.00 against HDAC1 (setting [3]).
For the compound `Nc1ccccc1NC(=O)c1ccc(C=C2CN(CC3CC3)C2)cc1` [F12], the “F × n > 2X (uM)” value in the data set on Frataxin (FXN) mRNA is reported as “A (A if less than 5 μM)”. Besides, in data set [2], the BPR entry is “A (A is greater than 1)”. For the same compound, the pIC50 at HDAC3/NcoR2 (Table 4), against HDAC2 (Table 4) and at HDAC1 (Table 4) was above 6.00 each time. In the data set on Human Hepatocytes, the “% left 6 h Hum” value was “A (50%<A)”.
Take `Nc1cc(F)ccc1NC(=O)/C=C/c1cnn(C/C=C/c2ccccc2)c1` [D2, (E)-N-(2-amino-4-fluorophenyl)-3-(1-cinnamyl-1H-pyrazol-4-yl)acrylamide]: the “effect of dose on long-term memory for object recognition” value in the data set on C57BL/6J male mice was “no effect of dose”.
As to `Cn1cc(/C=C/C(=O)Nc2cc(F)ccc2N)cn1` [C3], the pIC50 at HDAC3/NcoR2 is above 6.00; in data set [1] it was below 4.70; against HDAC2, 5.30 to 6.00; against HDAC1 it was 5.30 to 6.00.
In the case of `Cc1ccc(C(=O)NCCCCCC(=O)Nc2ccc(F)cc2N)cc1` [RGFP 136, reference compound], the “effect of dose on long-term memory for object recognition” value in the data set with C57BL/6J male mice is “Dose dependent effects”.
Turning to `CC(C)(C)CN1CCC(=Cc2ccc(C(=O)Nc3ccccc3N)cc2)CC1` [F14], the “F × n > 2X (uM)” value in the data set on Frataxin (FXN) mRNA was “A (A if less than 5 μM)”. In addition, the BPR entry in data set [2] is “A (A is greater than 1)”. The pIC50 against HDAC3/NcoR2 (Table 4), against HDAC2 (Table 4) and at HDAC1 (Table 4) was above 6.00 each time. Further, the “% left 6 h Hum” value in the data set with Human Hepatocytes is on record as “C (30%>C>10%)”.
As to `CN1CCC(Cn2cc(/C=C/C(=O)Nc3ccccc3N)cn2)CC1` [G1, (E)-N-(2-aminophenyl)-3-(1-((1-methylpiperidin-4-yl)methyl)-1H-pyrazol-4-yl)acrylamide], the negative-log IC50 (pIC50) against HDAC3/NcoR2 (setting [3]) was above 6.00; in data set [1] (Homo sapiens, GM15850), 5.30 to 6.00; on HDAC2 (setting [3]), 5.30 to 6.00; against HDAC1 (setting [3]) it was 5.30 to 6.00.
Take `CC(C)(O)CN1CCC(=Cc2ccc(C(=O)Nc3ccccc3N)cc2)CC1` [F15]: the “F × n > 2X (uM)” value in the data set on Frataxin (FXN) mRNA is on record as “A (A if less than 5 μM)”. For the same compound, the BPR entry in data set [2] is recorded as “A (A is greater than 1)”. Moreover, the negative logarithm of the IC50 (pIC50) at HDAC3/NcoR2 (Table 4), on HDAC2 (Table 4) and on HDAC1 (Table 4) was above 6.00 in each case. Further, the “% left 6 h Hum” value in the data set with Human Hepatocytes is “A (50%<A)”.
